From patent US20250011331A1 (Nimbus Saturn, Inc., priority 2021, published 2025)

These compounds were tested against T1, HPK1 (Homo sapiens, UniProt Q92918) (assay: HPK1 biochemical enzyme assay (microfluidic mobility shift)). Details: 1.5 nM HPK1 (Invitrogen), 1 mM ATP, 30 min preincubation, 60 min at RT, Caliper EZ Reader.
T1 construct: purchased Invitrogen
Method: HPK1 biochemical enzyme assay: HPK1 enzyme inhibition was measured using a microfluidic mobility shift assay. Reactions were performed in a 384-well plate, containing 1.5 nM HPK1 (Invitrogen), in assay buffer (Cama Biosciences; pH 7.4). Test compounds were titrated in ten point curves (top final assay concentration 3 μM), and preincubated with enzyme/substrate mix for 30 min prior to initiation of the reaction by addition of ATP (1 mM final concentration) and substrate (1 μM final concentration; Carna Biosciences) diluted in assay buffer supplemented by MgCl2 (final assay concentration of 5 mM). Following 60 min incubation at RT, the reaction was terminated by addition of 60 μl/well termination buffer (Carna Biosciences) and signal determination using a Caliper EZ Reader (Perkin Elmer, UK).

T1 sequence (Q92918 whole entry): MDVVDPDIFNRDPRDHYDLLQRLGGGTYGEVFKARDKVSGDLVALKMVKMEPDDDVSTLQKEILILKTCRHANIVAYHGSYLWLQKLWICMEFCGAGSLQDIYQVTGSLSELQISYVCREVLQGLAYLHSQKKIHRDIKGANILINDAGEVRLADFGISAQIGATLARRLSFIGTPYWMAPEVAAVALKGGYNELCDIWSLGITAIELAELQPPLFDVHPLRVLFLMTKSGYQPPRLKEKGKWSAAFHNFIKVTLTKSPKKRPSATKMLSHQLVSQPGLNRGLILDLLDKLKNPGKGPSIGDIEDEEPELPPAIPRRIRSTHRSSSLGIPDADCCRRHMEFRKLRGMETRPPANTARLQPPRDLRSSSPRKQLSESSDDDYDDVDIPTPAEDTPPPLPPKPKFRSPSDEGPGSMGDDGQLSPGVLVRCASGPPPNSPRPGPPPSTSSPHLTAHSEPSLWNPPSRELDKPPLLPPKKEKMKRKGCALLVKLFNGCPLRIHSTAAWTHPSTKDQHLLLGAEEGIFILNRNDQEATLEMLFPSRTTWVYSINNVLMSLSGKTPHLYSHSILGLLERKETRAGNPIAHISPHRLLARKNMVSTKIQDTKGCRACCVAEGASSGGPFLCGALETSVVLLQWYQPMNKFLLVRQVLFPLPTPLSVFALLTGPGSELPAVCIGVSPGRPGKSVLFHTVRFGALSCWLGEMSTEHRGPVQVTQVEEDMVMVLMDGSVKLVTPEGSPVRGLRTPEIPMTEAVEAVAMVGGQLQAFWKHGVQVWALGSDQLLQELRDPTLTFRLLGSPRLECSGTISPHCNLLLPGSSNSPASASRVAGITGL

Structure (SMILES)	IC50
COC1CN(Cc2nc(Nc3ccc(-c4cnc5cnccn45)c4c3C(=O)NC4)ccc2C2CCOC2)C1 (centres unmarked) [Compound I-42, 4-imidazo[1,2-a]pyrazin-3-yl-7-[[6-[(3-methoxyazetidin-1-yl)methyl]-5-tetrahydrofuran-3-yl-2-pyridyl]amino]isoindolin-1-one]	≤ 100 nM
CO[C@H]1CCN(Cc2nc(Nc3ccc(-c4cnc5cc(F)ccn45)c4c3C(=O)NC4)ccc2C2CCN(C)C(=O)C2)C1 (stereo partly drawn) [Compound I-43, 4-(7-fluoroimidazo[1,2-a]pyridin-3-yl)-7-[[6-[[(3S)-3-methoxypyrrolidin-1-yl]methyl]-5-(1-methyl-2-oxo-4-piperidyl)-2-pyridyl]amino]isoindolin-1-one]	≤ 100 nM
CO[C@H]1CCN(Cc2nc(Nc3ccc(-c4cnc5cc(F)ccn45)c4c3C(=O)NC4)ccc2C2CCN(C)C(=O)C2)C1 (stereo partly drawn) [Compound I-44, 4-(7-fluoroimidazo[1,2-a]pyridin-3-yl)-7-[[6-[[(3S)-3-methoxypyrrolidin-1-yl]methyl]-5-(1-methyl-2-oxo-4-piperidyl)-2-pyridyl]amino]isoindolin-1-one]	≤ 100 nM
CC(Oc1ccc(Nc2ccc(-c3cnc4cnccn34)c3c2C(=O)NC3)nc1CN(C)C)C1CC(F)(F)C1 (centres unmarked) [Compound I-49, 7-[[5-[1-(3,3-difluorocyclobutyl)ethoxy]-6-[(dimethylamino)methyl]-2-pyridyl]amino]-4-imidazo[1,2-a]pyrazin-3-yl-isoindolin-1-one]	≤ 100 nM
CN1CC[C@H](c2ccc(Nc3ccc(-c4cnc5cc(F)ccn45)c4c3C(=O)NC4)nc2)C1=O [Compound I-53, (R)-4-(7-fluoroimidazo[1,2-a]pyridin-3-yl)-7-((5-(1-methyl-2-oxopyrrolidin-3-yl)pyridin-2-yl)amino)isoindolin-1-one]	≤ 100 nM

The next lines start with the values.

IC50	Structure (SMILES)
> 1000 nM	CN(C)Cc1cc(C2CCOC2)cc(Nc2ccc(-c3cnc4cc(F)ccn34)c3c2C(=O)NC3)n1 (centres unmarked) [Compound I-46]
≤ 100 nM	CN(C)Cc1nc(Nc2ccc(-c3cnc4cc(C#N)ccn34)c3c2C(=O)NC3)ccc1C1CCOC1 (centres unmarked) [Compound I-47, 3-[7-[[6-[(dimethylamino)methyl]-5-tetrahydrofuran-3-yl-2-pyridyl]amino]-1-oxo-isoindolin-4-yl]imidazo[1,2-a]pyridine-7-carbonitrile]
≤ 100 nM	CCN1CCC(c2ccc(Nc3ccc(-c4cnc5cc(F)ccn45)c4c3C(=O)NC4)nc2CN(C)C)CC1=O (centres unmarked) [Compound I-48, 7-[[6-[(dimethylamino)methyl]-5-(1-ethyl-2-oxo-4-piperidyl)-2-pyridyl]amino]-4-(7-fluoroimidazo[1,2-a]pyridin-3-yl)isoindolin-1-one]
